# According to patent US20180184655A1 (priority 2011, published 2018):
# Tested on: Phytophthora infestans
# Assay type: in vivo, Phytophthora infestans on Potato
# Details: Potato field trial, France 2010, 6 foliar sprays, fluopicolide 75 g a.s./ha, cyazofamid 60 g a.s./ha, adjuvant 150 ml/ha
smiles,measurement,setting,value
"O=C(NCc1ncc(C(F)(F)F)cc1Cl)c1c(Cl)cccc1Cl [Fluopicolide, 2,6-dichloro-N-[3-chloro-5-(trifluoromethyl)-2-pyridylmethyl]benzamide]",Efficacy (Abbott values),29 days after last application,18.3%
same,Late blight severity on leaves,"assessed 29 days after last application, mean values, untreated reference 100%",81.7%
